Reference: ChEMBL document CHEMBL4219054, “Induction of apoptosis by pyrazolo[3,4-d]pyridazine derivative in lung cancer cells via disruption of Bcl-2/Bax expression balance” (Bioorg Med Chem, 2018)

Key:
HepG2 = assay: Antiproliferative activity against human HepG2 cells after 48 hrs by MTT assay; type: functional, cell-based
HCT-116 = assay: Antiproliferative activity against human HCT116 cells after 48 hrs by MTT assay; type: functional, cell-based
A549 [1] = assay: Antiproliferative activity against human A549 cells after 48 hrs by MTT assay; type: functional, cell-based
[2] = Antiproliferative activity against human HFB4 cells after 48 hrs by MTT assay; type: cell-based
WI-38 = assay: Antiproliferative activity against human WI38 cells after 48 hrs by MTT assay; type: cell-based; details: WI-38, 48 h
A549 [3] = assay: Cell cycle arrest in human A549 cells assessed as accumulation at sub G1 phase at 0.067 mM after 48 hrs by propidium iodide staining-based flow cytometric analysis (reference value: 0.77%); type: functional
A549 [4] = assay: Cell cycle arrest in human A549 cells assessed as accumulation at G0/G1 phase at 0.067 mM after 48 hrs by propidium iodide staining-based flow cytometric analysis (reference value: 66.85%); type: functional
A549 [5] = assay: Cell cycle arrest in human A549 cells assessed as accumulation at S phase at 0.067 mM after 48 hrs by propidium iodide staining-based flow cytometric analysis (reference value: 27.04%); type: functional
A549 [6] = assay: Cell cycle arrest in human A549 cells assessed as accumulation at G2/M phase at 0.067 mM after 48 hrs by propidium iodide staining-based flow cytometric analysis (reference value: 5.34%); type: functional
A549 [7] = assay: Induction of apoptosis in human A549 assessed as viable cells at 0.067 mM after 48 hrs by Annexin-V FITC/propidium iodide staining-based flow cytometric analysis (reference value: 97.42%); type: functional; details: A549, 48 h, read-out: Activity
A549 [8] = assay: Induction of apoptosis in human A549 assessed as early apoptotic cells at 0.067 mM after 48 hrs by Annexin-V FITC/propidium iodide staining-based flow cytometric analysis (reference value: 0.36%); type: functional
A549 [9] = assay: Induction of apoptosis in human A549 assessed as late apoptotic cells at 0.067 mM after 48 hrs by Annexin-V FITC/propidium iodide staining-based flow cytometric analysis (reference value: 0.21%); type: functional
A549 [10] = assay: Induction of apoptosis in human A549 assessed as necrotic cells at 0.067 mM after 48 hrs by Annexin-V FITC/propidium iodide staining-based flow cytometric analysis (reference value: 0.2%); type: functional
A549 [11] = assay: Induction of apoptosis in human A549 assessed as upregulation of caspase-3 mRNA expression level at 0.067 mM by RT-PCR analysis relative to control; type: functional
A549 [12] = assay: Induction of apoptosis in human A549 assessed as upregulation of Bax mRNA expression level at 0.067 mM by RT-PCR analysis relative to control; type: functional
A549 [13] = assay: Induction of apoptosis in human A549 assessed as upregulation of p53 mRNA expression level at 0.067 mM by RT-PCR analysis relative to control; type: functional
A549 [14] = assay: Induction of apoptosis in human A549 assessed as inhibition of Bcl2 mRNA expression level at 0.067 mM by RT-PCR analysis relative to control; type: functional

O=c1oc2ccc3ccccc3c2cc1-c1n[nH]c(=O)c2nn(-c3ccccc3)cc12
Activity (HepG2): Dose-dependent effect | IC50 (HepG2; HepG2, 48 h): 115 µM | Activity (HCT-116): Dose-dependent effect | IC50 (HCT-116; HCT-116, 48 h): 130 µM | Activity (A549 [1]): Dose-dependent effect | IC50 (A549 [1]; A549, 48 h): 67 µM | IC50 [2]: 281 µM | IC50 (WI-38): 219 µM | Activity (A549 [3]): 11.42% | Activity (A549 [4]): 56.88% | Activity (A549 [5]): 16.59% | Activity (A549 [6]): 15.11% | viability at 67 µM (A549 [7]): 86.9% | Activity (A549 [8]): 4.69% | Activity (A549 [9]): 5.37% | Activity (A549 [10]): 1.36% | fold change (FC) (A549 [11]): 7.19 | fold change (FC) (A549 [12]): 7.28 | fold change (FC) (A549 [13]): 5.08 | fold change (FC) (A549 [14]): 0.22
